Values of other authors, collected in patent publication US20140271903A1, “USE OF THERMO-SENSITIVE GEL FOR CONTROLLED DELIVERY OF ALK-5 INHIBITORS TO THE EYE AND RELATED METHODS” (NORTHEAST OHIO MEDICAL UNIVERSITY, priority 2013, published 2014).

Experiments:
[1] = system: rabbit subconjunctival fibroblasts; settings: cultured rabbit subconjunctival fibroblasts
[2] = system: rabbit subconjunctival fibroblasts

Row | SMILES | bleb survival (in vivo rabbit GFS model; recent rabbit studies, post-operative scarring after GFS) | downstream proteins of TGF-β: CTGF and a-SMA [1] | cytotoxicity and cell death versus antimetabolites (5-FU, MMC) [2] | bleb survival period compared to MMC (in vivo rabbit GFS model; in vivo rabbit GFS model) | period of filtering bleb survival (in vivo rabbit GFS model; in vivo rabbit GFS model) | toxicity in GFS compared to MMC (in vivo rabbit GFS model; rabbit, in vivo)
1 | CO[C@@]12[C@H](COC(N)=O)C3=C(C(=O)C(C)=C(N)C3=O)N1C[C@@H]1N[C@@H]12 [MMC, mitomycin-C] | around 30 days | – | – | – | – | –
2 | Cc1cccc(-c2[nH]c(C(C)(C)C)nc2-c2ccc3c(c2)OCO3)n1 [SB-505124] | – | marked reduction | less cytotoxic and causing less cell death than antimetabolites | substantially shorter compared to MMC | extended the period of filtering bleb survival | substantially lower than that of MMC
